Common to all, as to assay: NCI tumour cell line growth inhibition, 48 h
The subject of test [1] is CCRF-CEM leukemia.
For test [2], the system named is CAKI-1 renal.
Test [3] relates to MALME-3M melanoma.
Test [4] relates to SNB-75 CNS.
For test [5], the system named is NCI-H460 lung.
For test [6], the system named is SR leukemia.
Test [7] concerns MDA-N.
Test [8] relates to SW-620 colon.
Test [9] deals with 786-0 renal.
Test [10] relates to RXF 393 renal.
Test [11] has as its system UACC-62 melanoma.
The subject of test [12] is UO-31 renal.
In test [13] the test system is U251 CNS.
In test [14] the test system is OVCAR-8 ovarian.
Test [15] has as its system SF-268 CNS.
Test [16] deals with SK-OV-3 ovarian.
Test [17] deals with OVCAR-3 ovarian.
The test system of test [18] is NCI-H226 lung.

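Interpolation was linear, between the two tested concentrations surrounding the appropriate level; five concentrations were tested over 48 hours in 96-well plates. TGI: concentration producing complete growth inhibition.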 Where a SMILES comes first, the peptide text is derived from it. [ ]: non-standard residue; d: D form. The star is where a group is joined. Octanoyl = CCCCCCCC(=O)*; Aib = CC(C)(N)C(=O)O; tBu = CC(C)(C)*

Data on nine molecules can be found in PubChem BioAssay (NCI).

Regarding `O=C(/C=C/c1ccco1)CC(=O)/C=C/c1ccco1`, the TGI is 16.3 µM in [1]; 26.2 µM in test [2]; 20.9 µM in test [3]; over 31.6 µM in [4]; 22.2 µM in test [5]; 17.4 µM in test [6]. Also, the TGI in test [7] is 15 µM; in test [8] it was 17.1 µM; in test [9] it was 19.2 µM; in test [10], 10.6 µM; in test [11] it was over 31.6 µM; in test [12] it was 20.2 µM. Further, the results for the TGI in [13] and in test [14] were 19.7 µM and over 31.6 µM, respectively.
Consider `N/N=C1/CCCc2nonc21`, for which the TGI in [1], in test [2], in test [3], in [15], in [5] and in test [6] was over 100 µM in each case. In addition, the TGI in [16], in [7], in test [8], in test [9], in test [10] and in test [17] was over 100 µM in each case. The TGI in [11], in test [13] and in test [14] was over 100 µM in each case.
Turning to `CCCCCCCC(=O)NC(C)(C)C(=O)NC(COC(C)(C)C)C(=O)NC(CC(C)C)C(=O)NC(C)(C)C(=O)NC(COC(C)(C)C)C(=O)NC(COC(C)(C)C)C(=O)NC(CC(C)C)C(=O)NC(C)(C)C(=O)NC(COC(C)(C)C)C(=O)NC(C(=O)NC(CC(C)C)C(=O)OC)C(C)CC` (stereo unspecified) (Octanoyl-[Aib]S(tBu)L[Aib]S(tBu)S(tBu)L[Aib]S(tBu)IL-OMe; configuration not given here), the TGI in test [1] is 11.9 µM; in test [2], over 25 µM; in test [15] it was over 25 µM; in [4], 16.4 µM; in test [5] it was 13.8 µM; in test [6], 17.9 µM. Moreover, the TGI in test [16] was over 25 µM; in test [7], over 25 µM; in [18], 21.1 µM; in test [8], over 25 µM; in [9], 23.4 µM; in test [10] it was 9.99 µM. For the same molecule, the TGI in [17] is 10.9 µM; in test [11], 23.7 µM; in test [12], over 25 µM; in test [13] it was 12.8 µM; in test [14] it was over 25 µM.
Take `FC(F)(Sc1ccccc1)c1nc2ccccc2o1`: the TGI is 55.5 µM in test [1]; over 100 µM in [2]; over 100 µM in test [3]; over 100 µM in [15]; over 100 µM in test [5]; 73.7 µM in test [6]. Also, the TGI is 69.4 µM in test [16]; over 100 µM in [7]; over 100 µM in [18]; over 100 µM in [8]; over 100 µM in test [9]; over 100 µM in test [10]. Further, the TGI in [17], in [11], in test [12], in test [13] and in test [14] was over 100 µM each time.
Turning to `CC(C)(C)C(=O)C(C(c1ccccc1)N1CCOCC1)N1CCOCC1` (stereo unspecified), the TGI in [1], in test [2], in test [3], in [15], in [4] and in test [5] was over 100 µM throughout. In addition, the TGI in test [6], in test [7], in test [8], in [9], in [10] and in test [17] was over 100 µM throughout. Besides, the TGI in [11], in test [12], in test [13] and in [14] was over 100 µM each time.
As for `Cn1c(-c2ccc(/C=N\N3CCN(/N=C/c4ccc(-c5c[n+]6ccsc6n5C)cc4)CC3)cc2)c[n+]2ccsc12`, the TGI in test [1] is over 100 µM; in test [2] it was over 100 µM; in [15], over 100 µM; in test [4], 93.1 µM; in test [5], over 100 µM; in [6], over 100 µM. The TGI in test [16], in [7], in test [18], in [8], in test [9] and in [10] was over 100 µM in each case. In addition, the TGI in test [17] is over 100 µM; in test [11], 95.7 µM; in test [12], over 100 µM; in test [13] it was over 100 µM; in test [14] it was over 100 µM.
On to `CC1(C)CN=C(Nc2cccc(C(F)(F)F)c2)S1`, for which the TGI in test [1], in test [2], in test [3], in test [15], in [4] and in test [6] was over 100 µM in each case. The TGI in [16], in [7], in test [18], in test [8], in test [9] and in test [10] was over 100 µM throughout. Besides, the TGI in [17], in test [11], in [12], in test [13] and in [14] was over 100 µM throughout.
On to `CC(CO)C1=CC(C#CCOCc2ccccc2)N(C(=O)Oc2ccccc2)c2ccccc21` (stereo unspecified), for which the TGI in test [1] was over 100 µM; in [2] it was 76.1 µM; in [15], over 100 µM; in test [4] it was over 100 µM; in test [5] it was 91.8 µM; in test [6], over 100 µM. Moreover, the TGI in test [16] was over 100 µM; in [7], over 100 µM; in test [18] it was over 100 µM; in [8] it was over 100 µM; in [9], over 100 µM; in [10] it was 23 µM. The TGI in [17] was 88.2 µM; in test [11], 22.9 µM; in test [12] it was over 100 µM; in test [13], over 100 µM; in [14], over 100 µM.
For the molecule `COc1ccc2c(c1)N=C1CSC(c3cc([N+](=O)[O-])ccc3Cl)N1C2` (stereo unspecified), the TGI is 66.8 µM in test [2]; 60.4 µM in test [3]; over 100 µM in test [15]; 47.5 µM in [4]; 45.4 µM in test [5]; 70.1 µM in test [6]. The TGI in [16] is 65.1 µM; in test [7], over 100 µM; in test [18], over 100 µM; in test [8], over 100 µM; in test [9], 89.3 µM; in test [10], 82 µM. The TGI was 42.1 µM in test [11], 57.9 µM in [12], 71.2 µM in test [13] and over 100 µM in [14].
